# Assays:
# [1] = target: T1, Mitogen-activated protein kinase kinase kinase 5 (Homo sapiens, UniProt Q99683); assay: Inhibition of ASK1 (unknown origin) incubated for 0.5 to 5 hrs by TR-FRET assay
# T1 sequence (Q99683 whole entry): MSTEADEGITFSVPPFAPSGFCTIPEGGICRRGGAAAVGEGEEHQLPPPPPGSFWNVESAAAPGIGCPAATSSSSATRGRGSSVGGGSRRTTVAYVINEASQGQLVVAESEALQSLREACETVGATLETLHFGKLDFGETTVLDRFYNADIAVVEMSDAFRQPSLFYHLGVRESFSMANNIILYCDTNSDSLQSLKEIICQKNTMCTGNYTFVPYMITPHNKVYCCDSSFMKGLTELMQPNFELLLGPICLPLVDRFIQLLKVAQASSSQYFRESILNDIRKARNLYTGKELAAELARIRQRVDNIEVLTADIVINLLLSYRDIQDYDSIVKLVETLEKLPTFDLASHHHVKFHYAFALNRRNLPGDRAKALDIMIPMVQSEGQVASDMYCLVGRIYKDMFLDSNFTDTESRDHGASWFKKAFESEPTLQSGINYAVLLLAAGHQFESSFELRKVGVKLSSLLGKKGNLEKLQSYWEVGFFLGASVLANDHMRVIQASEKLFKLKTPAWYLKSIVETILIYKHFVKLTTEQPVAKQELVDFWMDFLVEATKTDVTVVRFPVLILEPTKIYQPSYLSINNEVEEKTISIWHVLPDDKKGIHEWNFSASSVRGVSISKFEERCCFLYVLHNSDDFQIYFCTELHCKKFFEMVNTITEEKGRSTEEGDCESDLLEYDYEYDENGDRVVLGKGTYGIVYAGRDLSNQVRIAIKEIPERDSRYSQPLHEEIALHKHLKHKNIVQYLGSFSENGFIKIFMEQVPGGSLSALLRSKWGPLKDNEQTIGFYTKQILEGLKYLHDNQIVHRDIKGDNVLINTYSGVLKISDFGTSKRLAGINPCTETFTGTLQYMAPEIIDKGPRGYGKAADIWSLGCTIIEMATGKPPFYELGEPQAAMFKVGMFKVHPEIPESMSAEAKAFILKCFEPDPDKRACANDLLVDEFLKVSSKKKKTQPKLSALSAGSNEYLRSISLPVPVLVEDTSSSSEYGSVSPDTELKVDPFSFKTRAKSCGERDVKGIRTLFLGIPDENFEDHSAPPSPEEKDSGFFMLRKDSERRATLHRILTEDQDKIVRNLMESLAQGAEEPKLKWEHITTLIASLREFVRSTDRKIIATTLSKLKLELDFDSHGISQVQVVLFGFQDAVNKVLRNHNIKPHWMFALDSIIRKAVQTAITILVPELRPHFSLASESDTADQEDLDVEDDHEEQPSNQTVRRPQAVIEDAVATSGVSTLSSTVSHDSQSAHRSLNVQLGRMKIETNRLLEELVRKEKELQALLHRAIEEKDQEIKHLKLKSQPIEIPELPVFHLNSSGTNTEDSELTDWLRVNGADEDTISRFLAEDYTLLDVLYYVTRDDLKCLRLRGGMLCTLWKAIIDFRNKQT
# [2] = target: T1, Mitogen-activated protein kinase kinase kinase 5; assay: Inhibition of ASK1 (unknown origin)
# [3] = target: T1, Mitogen-activated protein kinase kinase kinase 5; assay: Inhibition of full length GST-tagged recombinant human ASK1 using MBP as substrate incubated for 20 mins by cell based assay
# [4] = target: T1, Mitogen-activated protein kinase kinase kinase 5; assay: Inhibition of human ASK1 using STK-substrate biotin as substrate by TR-FRET assay
# [5] = target: T1, Mitogen-activated protein kinase kinase kinase 5; assay: Inhibition of human recombinant ASK1 by HTRF assay
# [6] = Half life in rat 5 mg/kg, po measured upto 24 hrs by LC-MS/MS analysis; assay type: ADME, organism-based; conditions: in vivo
# [7] = Cmax in rat 5 mg/kg, po measured upto 24 hrs by LC-MS/MS analysis; assay type: ADME, organism-based; conditions: in vivo
# [8] = AUC (0 to t) in rat 5 mg/kg, po measured upto 24 hrs by LC-MS/MS analysis; assay type: ADME, organism-based; conditions: in vivo
# [9] = target: T1, Mitogen-activated protein kinase kinase kinase 5; assay: Inhibition of N-terminal his-tagged human ASK1 (649 to 946 residues) expressed in Escherichia coli using [gamma-32p]ATP as substrate by liquid scintillation counting analysis
# [10] = target: T1, Mitogen-activated protein kinase kinase kinase 5; assay: Inhibition of ASK1 (unknown origin) preincubated with compound for 30 mins followed by ATP addition and measured after 120 mins by HTRF analysis
# [11] = target: T1, Mitogen-activated protein kinase kinase kinase 5; assay: Inhibition of human ASK1
# [12] = Toxicity in C57BL/6J mouse harboring SOD1 mutant assessed as animal survival (reference value: 1.06%); conditions: in vivo, read-out: Activity
smiles,measurement,setting,value
Cc1cc(F)c(C(=O)Nc2cccc(-c3nnc4[nH]ccn34)n2)cc1-n1cnc(C2CC2)c1,IC50,[1],6.7 nM
CC(C)n1cnnc1-c1cccc(NC(=O)c2cc3c(cc2F)CNCc2c(C4CC4)ncn2-3)n1,IC50,[2],< 10 nM
Cc1cc(F)c(C(=O)Nc2cccc(-c3nnc4ccccn34)n2)cc1-n1cnc(C2CC2)c1,IC50,[1],7.8 nM
Cc1cc(F)c(C(=O)Nc2cccc(-c3nnc4n3CCCC4)n2)cc1-n1cc(C2CC2)nn1,IC50,[3],> 100 nM
C[C@H](CO)n1cnnc1-c1cccc(N2CCN(c3ccc(C(=O)N4CCCCC4)cn3)C2=O)n1,EC50,[4],≤ 50 nM
same,IC50,[5],≤ 50 nM
Cc1cc2c(cc1-n1cnc(C3CC3)c1)C(=O)N(c1cccc(-c3nncn3C(C)C)n1)C2C (centres undefined),half-life,[6],174 min
same,Cmax,[7],2270 ng/mL
same,AUC(0-t) at 24 h,[8],9430 ng·h/mL
CC(C)n1cnnc1-c1cccc(NC(=O)c2cc3c(cc2F)CNCCc2c(C4CC4)ncn2-3)n1,IC50,[2],< 10 nM
CC(C)n1cnnc1-c1nc(NC(=O)c2cc3c(cc2F)CCCc2nc(C4CC4)cn2-3)cs1,IC50,[2],> 50 nM
CC(C)n1cnnc1-c1cccc(N2Cc3ccc(-n4cnc(C5CC5)c4)cc3C2=O)n1,IC50,[2],0.93 nM
C=C(C)[C@@H]1CC[C@]2(C(=O)On3nnc4ccccc43)CC[C@]3(C)[C@H](C[C@@H](O)[C@@H]4[C@@]5(C)C(CC(=O)OCC)OC(C)(C)C5CC[C@]43C)[C@@H]12 (some centres undefined),IC50,[9],5.08 nM
C=C(C)[C@@H]1CC[C@]2(C(=O)N(CCOCCOn3nnc4ccccc43)C(=O)OC(C)(C)C)CC[C@]3(C)[C@H](C[C@H]4OC(=O)C[C@@H](O)[C@]5(C)[C@@H]4[C@@]3(C)CC[C@H]5C(=C)C)[C@@H]12,IC50,[9],2.02 nM
Cc1ccc(N(C)C(=O)Nc2cccc(-c3nncn3C(C)C)n2)c(F)c1,EC50,[4],≤ 5000 nM
CC(C)n1cnnc1-c1cccc(-n2ccc3ccc(-n4cnc(C5CC5)c4)cc3c2=O)n1,IC50,[2],2.71 nM
CC(C)n1cnnc1-c1cccc(NC(=O)c2cc3c(cc2F)COCc2nc(C4CC4)cn2-3)n1,IC50,[2],< 10 nM
CC(C)n1cnnc1-c1nc(NC(=O)c2cc3c(cc2F)CNCc2nc(C4CC4)cn2-3)cs1,IC50,[2],> 50 nM
CC(C)n1cnnc1-c1cccc(N2C(=O)c3ccc(-n4cnc(C5CC5)c4)cc3C2(C)C)n1,IC50,[2],3.22 nM
CC(C)n1cnnc1-c1cccc(-n2cnc3ccc(-n4cnc(C5CC5)c4)cc3c2=O)n1,IC50,[10],11.1 nM
CC(C)n1cnnc1-c1cccc(C(=O)Nc2cc(-n3cnc(C4CC4)c3)ccn2)n1,IC50,[5],0.7 nM
Cc1ccc(-c2cnc(-c3cccc(-c4nncn4C(C)C)n3)o2)c(F)c1,IC50,[5],≤ 50 nM
CC(C)n1cnnc1-c1cccc(N2CCOc3ccc(-n4cnc(C5CC5)c4)cc3C2=O)n1,IC50,[10],4.26 nM
COc1cc2nncc(Oc3ccc(NC(=O)c4cn(C(C)C)c5c(c4=O)CCC=C5)cc3)c2cc1OC,IC50,[11],6 nM
same,survival,[12],1.08%
C=C(C)[C@@H]1CC[C@]2(C(=O)O)CC[C@]3(C)[C@H](C[C@@H](O)[C@@H]4[C@@](C)([C@H](O)CC(=O)O)[C@H](C(=C)C)CC[C@]43C)[C@@H]12,IC50,[9],407 nM
CC(C)n1cnnc1-c1nc(NC(=O)c2cc3c(cc2F)C(=O)NCc2nc(C4CC4)cn2-3)cs1,IC50,[2],> 50 nM
CC(C)n1cnnc1-c1cccc(-c2coc3ccc(-n4cnc(C5CC5)c4)cc3c2=O)n1,IC50,[10],1.14 nM
Cc1cc(F)c(C(=O)Nc2cccc(-c3nnc4n3CCNC4)n2)cc1-n1cnc(C2CC2)c1,IC50,[1],47.8 nM
CC(C)n1cnnc1-c1cccc(N2CC(C)(C)c3ccc(-n4cnc(C5CC5)c4)cc3C2=O)n1,IC50,[2],5.91 nM
Cc1cc2c(cc1-n1cnc(C3CC3)c1)C(=O)N(c1cccc(-c3nncn3C(C)C)n1)C2,half-life,[6],78 min
same,Cmax,[7],8190 ng/mL
same,IC50,[1],3.9 nM
same,AUC(0-t) at 24 h,[8],19200 ng·h/mL

# Source: ChEMBL document CHEMBL5512601, “Small-molecule inhibitors targeting apoptosis signal-regulated kinase 1” (Eur J Med Chem, 2023)
